Assay results from the kinase profiling compilation of Christmann-Franck et al. (2016).

molecular target: ACVR1 (human) (UniProt Q04771); assay: radiometric filter-binding kinase assay, Kinase HotSpot; conditions: compound 0.5 µM; ATP 10 µM

Q: For `O=C(Nc1ccc(Cl)cc1)c1ccccc1NCc1ccncc1`, which residual activity is on record?
A: 97.2%

Q: How did the residual activity turn out when `CC(C)n1cnc2c(Nc3cccc(Cl)c3)nc(NCCO)nc21` was run?
A: 80.3%

Q: `COc1cc2nccc(Oc3ccc(NC(=S)NC(=O)c4ccccc4C)cc3)c2cc1OC` was tested. Which residual activity did it give?
A: 93.5%

Q: For `O=c1cc(-c2cccc3c2Sc2ccccc2S3)oc(N2CCOCC2)c1`, which residual activity is on record?
A: 97.5%

molecular target: ACVR1B (human) (UniProt P36896); assay: as above; conditions: compound 0.5 µM; ATP 10 µM

Q: For `O=C(Nc1ccc(Cl)cc1)c1ccccc1NCc1ccncc1`, which residual activity is on record?
A: 95.8%

Q: How did the residual activity turn out when `CC(C)n1cnc2c(Nc3cccc(Cl)c3)nc(NCCO)nc21` was run?
A: 101%

Q: With `COc1cc2nccc(Oc3ccc(NC(=S)NC(=O)c4ccccc4C)cc3)c2cc1OC` as the molecule, how does the residual activity read?
A: 92.1%

Q: How did the residual activity turn out when `O=c1cc(-c2cccc3c2Sc2ccccc2S3)oc(N2CCOCC2)c1` was run?
A: 114%

molecular target: AKT3 (human) (UniProt Q9Y243); assay: as above; conditions: compound 0.5 µM; ATP 10 µM
Sequence (Q9Y243 whole entry, looked up): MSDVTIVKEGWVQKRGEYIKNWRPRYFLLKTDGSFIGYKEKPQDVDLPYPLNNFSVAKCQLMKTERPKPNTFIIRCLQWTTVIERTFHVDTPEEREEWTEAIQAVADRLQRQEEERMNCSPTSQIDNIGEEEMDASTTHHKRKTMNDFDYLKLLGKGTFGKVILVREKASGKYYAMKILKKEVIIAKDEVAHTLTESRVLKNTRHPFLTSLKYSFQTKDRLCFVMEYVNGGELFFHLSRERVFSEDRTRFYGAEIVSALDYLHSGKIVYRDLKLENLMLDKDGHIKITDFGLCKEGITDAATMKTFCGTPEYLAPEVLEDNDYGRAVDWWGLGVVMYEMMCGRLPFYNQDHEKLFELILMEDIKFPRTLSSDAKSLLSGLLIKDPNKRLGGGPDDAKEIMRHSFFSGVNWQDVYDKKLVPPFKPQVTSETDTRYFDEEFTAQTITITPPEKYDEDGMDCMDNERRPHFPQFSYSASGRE

Q: How did the residual activity turn out when `O=C(Nc1ccc(Cl)cc1)c1ccccc1NCc1ccncc1` was run?
A: 97.9%

Q: Which residual activity does the source give for `CC(C)n1cnc2c(Nc3cccc(Cl)c3)nc(NCCO)nc21` here?
A: 99.9%

Q: Which residual activity does the source give for `COc1cc2nccc(Oc3ccc(NC(=S)NC(=O)c4ccccc4C)cc3)c2cc1OC` here?
A: 95.9%

Q: `O=c1cc(-c2cccc3c2Sc2ccccc2S3)oc(N2CCOCC2)c1` was tested. Which residual activity did it give?
A: 109%

molecular target: AURKB (human) (UniProt Q96GD4); assay: as above; conditions: compound 0.5 µM; ATP 10 µM

Q: With `O=C(Nc1ccc(Cl)cc1)c1ccccc1NCc1ccncc1` as the molecule, how does the residual activity read?
A: 77.7%

Q: For `CC(C)n1cnc2c(Nc3cccc(Cl)c3)nc(NCCO)nc21`, which residual activity is on record?
A: 106%

Q: `COc1cc2nccc(Oc3ccc(NC(=S)NC(=O)c4ccccc4C)cc3)c2cc1OC` was tested. Which residual activity did it give?
A: 4.31%

Q: How did the residual activity turn out when `O=c1cc(-c2cccc3c2Sc2ccccc2S3)oc(N2CCOCC2)c1` was run?
A: 95.8%

molecular target: CAMK1 (human) (UniProt Q14012); assay: as above; conditions: compound 0.5 µM; ATP 10 µM
Sequence (Q14012 whole entry, looked up): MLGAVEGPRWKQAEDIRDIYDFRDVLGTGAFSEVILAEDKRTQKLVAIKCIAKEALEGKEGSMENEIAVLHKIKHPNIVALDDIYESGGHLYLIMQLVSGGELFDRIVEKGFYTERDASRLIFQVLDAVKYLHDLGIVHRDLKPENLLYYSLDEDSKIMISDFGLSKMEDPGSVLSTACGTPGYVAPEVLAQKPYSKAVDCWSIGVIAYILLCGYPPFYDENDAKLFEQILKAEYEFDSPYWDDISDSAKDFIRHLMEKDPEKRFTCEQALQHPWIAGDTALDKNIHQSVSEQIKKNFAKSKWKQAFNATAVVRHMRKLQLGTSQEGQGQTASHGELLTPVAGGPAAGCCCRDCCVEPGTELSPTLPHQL

Q: With `O=C(Nc1ccc(Cl)cc1)c1ccccc1NCc1ccncc1` as the molecule, how does the residual activity read?
A: 103%

Q: How did the residual activity turn out when `CC(C)n1cnc2c(Nc3cccc(Cl)c3)nc(NCCO)nc21` was run?
A: 71.2%

Q: `COc1cc2nccc(Oc3ccc(NC(=S)NC(=O)c4ccccc4C)cc3)c2cc1OC` was tested. Which residual activity did it give?
A: 101%

Q: `O=c1cc(-c2cccc3c2Sc2ccccc2S3)oc(N2CCOCC2)c1` was tested. Which residual activity did it give?
A: 94.2%

molecular target: CAMKK2 (human) (UniProt Q96RR4); assay: as above; conditions: compound 0.5 µM; ATP 10 µM
Sequence (Q96RR4 whole entry, looked up): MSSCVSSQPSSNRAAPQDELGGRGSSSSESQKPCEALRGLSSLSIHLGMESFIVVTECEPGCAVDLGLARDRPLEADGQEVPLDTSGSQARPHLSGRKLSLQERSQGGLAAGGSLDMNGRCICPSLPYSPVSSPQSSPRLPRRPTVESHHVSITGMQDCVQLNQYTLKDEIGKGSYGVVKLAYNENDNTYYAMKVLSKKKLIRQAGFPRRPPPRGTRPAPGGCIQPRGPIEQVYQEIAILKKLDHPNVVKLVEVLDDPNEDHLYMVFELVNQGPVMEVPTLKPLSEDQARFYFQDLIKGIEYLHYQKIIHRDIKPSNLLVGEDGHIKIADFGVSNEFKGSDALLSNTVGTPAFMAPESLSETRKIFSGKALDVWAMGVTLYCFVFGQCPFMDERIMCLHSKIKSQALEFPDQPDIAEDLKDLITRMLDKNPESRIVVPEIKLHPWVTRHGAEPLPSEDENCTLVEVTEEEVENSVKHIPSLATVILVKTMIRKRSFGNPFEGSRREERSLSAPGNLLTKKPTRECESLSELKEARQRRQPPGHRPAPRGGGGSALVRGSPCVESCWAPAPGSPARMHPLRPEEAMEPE

Q: With `O=C(Nc1ccc(Cl)cc1)c1ccccc1NCc1ccncc1` as the molecule, how does the residual activity read?
A: 93.9%

Q: `CC(C)n1cnc2c(Nc3cccc(Cl)c3)nc(NCCO)nc21` was tested. Which residual activity did it give?
A: 68.2%

Q: For `COc1cc2nccc(Oc3ccc(NC(=S)NC(=O)c4ccccc4C)cc3)c2cc1OC`, which residual activity is on record?
A: 75%

Q: Which residual activity does the source give for `O=c1cc(-c2cccc3c2Sc2ccccc2S3)oc(N2CCOCC2)c1` here?
A: 133%

molecular target: CSF1R (human) (UniProt P07333); assay: as above; conditions: compound 0.5 µM; ATP 10 µM

Q: `O=C(Nc1ccc(Cl)cc1)c1ccccc1NCc1ccncc1` was tested. Which residual activity did it give?
A: 18.4%

Q: For `CC(C)n1cnc2c(Nc3cccc(Cl)c3)nc(NCCO)nc21`, which residual activity is on record?
A: 94.8%

Q: With `COc1cc2nccc(Oc3ccc(NC(=S)NC(=O)c4ccccc4C)cc3)c2cc1OC` as the molecule, how does the residual activity read?
A: 10.5%

Q: How did the residual activity turn out when `O=c1cc(-c2cccc3c2Sc2ccccc2S3)oc(N2CCOCC2)c1` was run?
A: 91.9%

molecular target: CSNK1A1 (human) (UniProt P48729); assay: as above; conditions: compound 0.5 µM; ATP 10 µM

Q: `O=C(Nc1ccc(Cl)cc1)c1ccccc1NCc1ccncc1` was tested. Which residual activity did it give?
A: 88.1%

Q: How did the residual activity turn out when `CC(C)n1cnc2c(Nc3cccc(Cl)c3)nc(NCCO)nc21` was run?
A: 62.3%

Q: `COc1cc2nccc(Oc3ccc(NC(=S)NC(=O)c4ccccc4C)cc3)c2cc1OC` was tested. Which residual activity did it give?
A: 96.3%

Q: `O=c1cc(-c2cccc3c2Sc2ccccc2S3)oc(N2CCOCC2)c1` was tested. Which residual activity did it give?
A: 94.9%

molecular target: DYRK3 (human) (UniProt O43781); assay: as above; conditions: compound 0.5 µM; ATP 10 µM
Sequence (O43781 whole entry, looked up): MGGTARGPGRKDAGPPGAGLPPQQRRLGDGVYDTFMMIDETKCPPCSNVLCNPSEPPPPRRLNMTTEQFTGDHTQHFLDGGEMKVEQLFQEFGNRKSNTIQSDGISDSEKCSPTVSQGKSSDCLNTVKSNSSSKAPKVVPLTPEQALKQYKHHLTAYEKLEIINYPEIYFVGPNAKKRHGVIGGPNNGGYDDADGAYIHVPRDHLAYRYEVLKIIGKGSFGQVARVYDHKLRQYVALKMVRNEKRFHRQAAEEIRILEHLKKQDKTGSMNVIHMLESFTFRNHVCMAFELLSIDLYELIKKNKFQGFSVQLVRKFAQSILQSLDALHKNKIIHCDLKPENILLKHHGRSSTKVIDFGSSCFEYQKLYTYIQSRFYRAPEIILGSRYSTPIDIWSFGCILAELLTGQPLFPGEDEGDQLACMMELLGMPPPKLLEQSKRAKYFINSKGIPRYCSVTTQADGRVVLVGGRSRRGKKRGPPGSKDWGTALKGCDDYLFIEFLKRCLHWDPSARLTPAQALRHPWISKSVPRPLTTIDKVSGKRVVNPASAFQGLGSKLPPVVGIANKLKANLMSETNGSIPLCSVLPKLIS

Q: `O=C(Nc1ccc(Cl)cc1)c1ccccc1NCc1ccncc1` was tested. Which residual activity did it give?
A: 104%

Q: Which residual activity does the source give for `CC(C)n1cnc2c(Nc3cccc(Cl)c3)nc(NCCO)nc21` here?
A: 97.2%

Q: For `COc1cc2nccc(Oc3ccc(NC(=S)NC(=O)c4ccccc4C)cc3)c2cc1OC`, which residual activity is on record?
A: 90.8%

Q: With `O=c1cc(-c2cccc3c2Sc2ccccc2S3)oc(N2CCOCC2)c1` as the molecule, how does the residual activity read?
A: 84.3%

molecular target: DYRK4 (human) (UniProt Q9NR20); assay: as above; conditions: compound 0.5 µM; ATP 10 µM

Q: For `O=C(Nc1ccc(Cl)cc1)c1ccccc1NCc1ccncc1`, which residual activity is on record?
A: 104%

Q: For `CC(C)n1cnc2c(Nc3cccc(Cl)c3)nc(NCCO)nc21`, which residual activity is on record?
A: 91.2%

Q: For `COc1cc2nccc(Oc3ccc(NC(=S)NC(=O)c4ccccc4C)cc3)c2cc1OC`, which residual activity is on record?
A: 92.7%

Q: For `O=c1cc(-c2cccc3c2Sc2ccccc2S3)oc(N2CCOCC2)c1`, which residual activity is on record?
A: 105%

molecular target: ERBB2 (human) (UniProt P04626); assay: as above; conditions: compound 0.5 µM; ATP 10 µM

Q: With `O=C(Nc1ccc(Cl)cc1)c1ccccc1NCc1ccncc1` as the molecule, how does the residual activity read?
A: 98.7%

Q: Which residual activity does the source give for `CC(C)n1cnc2c(Nc3cccc(Cl)c3)nc(NCCO)nc21` here?
A: 96.2%

Q: For `COc1cc2nccc(Oc3ccc(NC(=S)NC(=O)c4ccccc4C)cc3)c2cc1OC`, which residual activity is on record?
A: 102%

Q: How did the residual activity turn out when `O=c1cc(-c2cccc3c2Sc2ccccc2S3)oc(N2CCOCC2)c1` was run?
A: 97.3%

molecular target: ERBB4 (human) (UniProt Q15303); assay: as above; conditions: compound 0.5 µM; ATP 10 µM

Q: Which residual activity does the source give for `O=C(Nc1ccc(Cl)cc1)c1ccccc1NCc1ccncc1` here?
A: 71.3%

Q: How did the residual activity turn out when `CC(C)n1cnc2c(Nc3cccc(Cl)c3)nc(NCCO)nc21` was run?
A: 101%

Q: For `COc1cc2nccc(Oc3ccc(NC(=S)NC(=O)c4ccccc4C)cc3)c2cc1OC`, which residual activity is on record?
A: 114%

Q: For `O=c1cc(-c2cccc3c2Sc2ccccc2S3)oc(N2CCOCC2)c1`, which residual activity is on record?
A: 105%

molecular target: FGFR2 (human) (UniProt P21802); assay: as above; conditions: compound 0.5 µM; ATP 10 µM

Q: How did the residual activity turn out when `O=C(Nc1ccc(Cl)cc1)c1ccccc1NCc1ccncc1` was run?
A: 95.7%

Q: How did the residual activity turn out when `CC(C)n1cnc2c(Nc3cccc(Cl)c3)nc(NCCO)nc21` was run?
A: 94.5%

Q: `COc1cc2nccc(Oc3ccc(NC(=S)NC(=O)c4ccccc4C)cc3)c2cc1OC` was tested. Which residual activity did it give?
A: 89%

Q: `O=c1cc(-c2cccc3c2Sc2ccccc2S3)oc(N2CCOCC2)c1` was tested. Which residual activity did it give?
A: 98.7%

molecular target: HIPK2 (human) (UniProt Q9H2X6); assay: as above; conditions: compound 0.5 µM; ATP 10 µM
Sequence (Q9H2X6 whole entry, looked up): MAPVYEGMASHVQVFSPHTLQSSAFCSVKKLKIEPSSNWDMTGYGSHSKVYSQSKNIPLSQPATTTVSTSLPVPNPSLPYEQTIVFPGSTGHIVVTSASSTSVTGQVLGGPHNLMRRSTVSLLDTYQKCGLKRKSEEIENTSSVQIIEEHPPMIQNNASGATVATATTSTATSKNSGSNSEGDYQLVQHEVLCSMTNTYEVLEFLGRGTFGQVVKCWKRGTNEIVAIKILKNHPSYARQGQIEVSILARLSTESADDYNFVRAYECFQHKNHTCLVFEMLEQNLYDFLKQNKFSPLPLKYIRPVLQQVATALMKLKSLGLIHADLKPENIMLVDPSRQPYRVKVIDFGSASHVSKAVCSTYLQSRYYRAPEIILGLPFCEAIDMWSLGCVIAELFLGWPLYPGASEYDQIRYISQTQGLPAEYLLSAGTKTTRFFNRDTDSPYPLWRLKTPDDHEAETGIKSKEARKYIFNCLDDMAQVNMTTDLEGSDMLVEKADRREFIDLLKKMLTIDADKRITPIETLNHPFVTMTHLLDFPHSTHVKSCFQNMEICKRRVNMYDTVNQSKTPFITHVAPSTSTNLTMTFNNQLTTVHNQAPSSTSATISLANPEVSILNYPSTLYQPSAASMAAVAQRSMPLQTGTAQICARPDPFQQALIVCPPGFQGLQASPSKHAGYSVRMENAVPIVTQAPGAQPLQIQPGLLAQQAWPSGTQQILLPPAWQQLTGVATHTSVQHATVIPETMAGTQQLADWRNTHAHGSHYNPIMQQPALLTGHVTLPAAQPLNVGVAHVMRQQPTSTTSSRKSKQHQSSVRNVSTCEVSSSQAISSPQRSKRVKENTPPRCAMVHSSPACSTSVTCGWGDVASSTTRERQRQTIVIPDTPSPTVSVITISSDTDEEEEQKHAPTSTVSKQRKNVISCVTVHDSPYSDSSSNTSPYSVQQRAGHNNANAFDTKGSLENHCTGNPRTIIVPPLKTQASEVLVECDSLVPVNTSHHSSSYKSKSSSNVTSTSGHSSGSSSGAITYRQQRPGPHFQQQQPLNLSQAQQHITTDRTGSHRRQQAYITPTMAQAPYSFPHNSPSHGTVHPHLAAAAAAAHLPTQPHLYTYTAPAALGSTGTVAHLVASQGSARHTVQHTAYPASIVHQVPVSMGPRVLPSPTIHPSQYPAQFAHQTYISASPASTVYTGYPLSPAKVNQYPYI

Q: With `O=C(Nc1ccc(Cl)cc1)c1ccccc1NCc1ccncc1` as the molecule, how does the residual activity read?
A: 93%

Q: How did the residual activity turn out when `CC(C)n1cnc2c(Nc3cccc(Cl)c3)nc(NCCO)nc21` was run?
A: 93.3%

Q: For `COc1cc2nccc(Oc3ccc(NC(=S)NC(=O)c4ccccc4C)cc3)c2cc1OC`, which residual activity is on record?
A: 99.2%

Q: For `O=c1cc(-c2cccc3c2Sc2ccccc2S3)oc(N2CCOCC2)c1`, which residual activity is on record?
A: 105%

molecular target: JAK3 JH1 JH2 (human) (UniProt P52333); assay: as above; conditions: compound 0.5 µM; ATP 10 µM

Q: `O=C(Nc1ccc(Cl)cc1)c1ccccc1NCc1ccncc1` was tested. Which residual activity did it give?
A: 87.8%

Q: For `CC(C)n1cnc2c(Nc3cccc(Cl)c3)nc(NCCO)nc21`, which residual activity is on record?
A: 24.7%

Q: With `COc1cc2nccc(Oc3ccc(NC(=S)NC(=O)c4ccccc4C)cc3)c2cc1OC` as the molecule, how does the residual activity read?
A: 96.6%

Q: With `O=c1cc(-c2cccc3c2Sc2ccccc2S3)oc(N2CCOCC2)c1` as the molecule, how does the residual activity read?
A: 108%

molecular target: LCK (human) (UniProt P06239); assay: as above; conditions: compound 0.5 µM; ATP 10 µM

Q: How did the residual activity turn out when `O=C(Nc1ccc(Cl)cc1)c1ccccc1NCc1ccncc1` was run?
A: 93.3%

Q: With `CC(C)n1cnc2c(Nc3cccc(Cl)c3)nc(NCCO)nc21` as the molecule, how does the residual activity read?
A: 84.9%

Q: With `COc1cc2nccc(Oc3ccc(NC(=S)NC(=O)c4ccccc4C)cc3)c2cc1OC` as the molecule, how does the residual activity read?
A: 1.62%

Q: For `O=c1cc(-c2cccc3c2Sc2ccccc2S3)oc(N2CCOCC2)c1`, which residual activity is on record?
A: 98.1%

molecular target: MAP2K1 (human) (UniProt Q02750); assay: as above; conditions: compound 0.5 µM; ATP 10 µM
Sequence (Q02750 whole entry, looked up): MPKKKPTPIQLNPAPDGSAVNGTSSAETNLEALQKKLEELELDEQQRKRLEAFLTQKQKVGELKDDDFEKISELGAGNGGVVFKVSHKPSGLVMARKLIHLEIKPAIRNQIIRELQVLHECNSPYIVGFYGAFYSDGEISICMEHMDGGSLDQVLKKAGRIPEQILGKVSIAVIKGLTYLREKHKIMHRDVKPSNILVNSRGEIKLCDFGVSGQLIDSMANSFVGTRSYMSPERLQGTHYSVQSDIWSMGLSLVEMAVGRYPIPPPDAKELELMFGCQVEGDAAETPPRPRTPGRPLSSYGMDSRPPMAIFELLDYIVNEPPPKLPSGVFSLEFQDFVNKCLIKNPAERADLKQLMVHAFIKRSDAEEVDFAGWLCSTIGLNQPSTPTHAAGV

Q: Which residual activity does the source give for `O=C(Nc1ccc(Cl)cc1)c1ccccc1NCc1ccncc1` here?
A: 96.8%

Q: How did the residual activity turn out when `CC(C)n1cnc2c(Nc3cccc(Cl)c3)nc(NCCO)nc21` was run?
A: 92.8%

Q: How did the residual activity turn out when `COc1cc2nccc(Oc3ccc(NC(=S)NC(=O)c4ccccc4C)cc3)c2cc1OC` was run?
A: 88.3%

Q: With `O=c1cc(-c2cccc3c2Sc2ccccc2S3)oc(N2CCOCC2)c1` as the molecule, how does the residual activity read?
A: 94.9%

molecular target: MAP3K11 (human) (UniProt Q16584); assay: as above; conditions: compound 0.5 µM; ATP 10 µM

Q: With `O=C(Nc1ccc(Cl)cc1)c1ccccc1NCc1ccncc1` as the molecule, how does the residual activity read?
A: 89%

Q: `CC(C)n1cnc2c(Nc3cccc(Cl)c3)nc(NCCO)nc21` was tested. Which residual activity did it give?
A: 51%

Q: How did the residual activity turn out when `COc1cc2nccc(Oc3ccc(NC(=S)NC(=O)c4ccccc4C)cc3)c2cc1OC` was run?
A: 95.5%

Q: How did the residual activity turn out when `O=c1cc(-c2cccc3c2Sc2ccccc2S3)oc(N2CCOCC2)c1` was run?
A: 98.6%

molecular target: MAP3K2 (human) (UniProt Q9Y2U5); assay: as above; conditions: compound 0.5 µM; ATP 10 µM
Sequence (Q9Y2U5 whole entry, looked up): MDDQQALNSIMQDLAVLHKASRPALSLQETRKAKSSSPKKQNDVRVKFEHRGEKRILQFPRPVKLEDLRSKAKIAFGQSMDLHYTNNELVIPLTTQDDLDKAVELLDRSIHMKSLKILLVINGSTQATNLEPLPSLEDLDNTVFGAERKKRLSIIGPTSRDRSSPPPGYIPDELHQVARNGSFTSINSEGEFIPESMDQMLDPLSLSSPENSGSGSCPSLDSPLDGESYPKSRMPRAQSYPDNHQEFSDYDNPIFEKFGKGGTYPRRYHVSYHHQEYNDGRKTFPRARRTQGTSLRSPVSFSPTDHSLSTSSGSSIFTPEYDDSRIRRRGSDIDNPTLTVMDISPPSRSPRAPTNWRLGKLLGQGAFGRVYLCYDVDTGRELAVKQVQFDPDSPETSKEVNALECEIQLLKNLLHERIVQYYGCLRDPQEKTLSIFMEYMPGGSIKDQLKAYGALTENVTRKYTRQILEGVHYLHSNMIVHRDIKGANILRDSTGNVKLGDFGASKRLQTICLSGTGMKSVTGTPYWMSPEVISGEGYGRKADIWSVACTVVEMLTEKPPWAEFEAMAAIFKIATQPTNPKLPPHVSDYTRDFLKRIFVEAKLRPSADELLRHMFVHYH

Q: With `O=C(Nc1ccc(Cl)cc1)c1ccccc1NCc1ccncc1` as the molecule, how does the residual activity read?
A: 92.8%

Q: For `CC(C)n1cnc2c(Nc3cccc(Cl)c3)nc(NCCO)nc21`, which residual activity is on record?
A: 97.6%

Q: For `COc1cc2nccc(Oc3ccc(NC(=S)NC(=O)c4ccccc4C)cc3)c2cc1OC`, which residual activity is on record?
A: 83.1%

Q: For `O=c1cc(-c2cccc3c2Sc2ccccc2S3)oc(N2CCOCC2)c1`, which residual activity is on record?
A: 92.7%

molecular target: MARK4 (human) (UniProt Q96L34); assay: as above; conditions: compound 0.5 µM; ATP 10 µM
Sequence (Q96L34 whole entry, looked up): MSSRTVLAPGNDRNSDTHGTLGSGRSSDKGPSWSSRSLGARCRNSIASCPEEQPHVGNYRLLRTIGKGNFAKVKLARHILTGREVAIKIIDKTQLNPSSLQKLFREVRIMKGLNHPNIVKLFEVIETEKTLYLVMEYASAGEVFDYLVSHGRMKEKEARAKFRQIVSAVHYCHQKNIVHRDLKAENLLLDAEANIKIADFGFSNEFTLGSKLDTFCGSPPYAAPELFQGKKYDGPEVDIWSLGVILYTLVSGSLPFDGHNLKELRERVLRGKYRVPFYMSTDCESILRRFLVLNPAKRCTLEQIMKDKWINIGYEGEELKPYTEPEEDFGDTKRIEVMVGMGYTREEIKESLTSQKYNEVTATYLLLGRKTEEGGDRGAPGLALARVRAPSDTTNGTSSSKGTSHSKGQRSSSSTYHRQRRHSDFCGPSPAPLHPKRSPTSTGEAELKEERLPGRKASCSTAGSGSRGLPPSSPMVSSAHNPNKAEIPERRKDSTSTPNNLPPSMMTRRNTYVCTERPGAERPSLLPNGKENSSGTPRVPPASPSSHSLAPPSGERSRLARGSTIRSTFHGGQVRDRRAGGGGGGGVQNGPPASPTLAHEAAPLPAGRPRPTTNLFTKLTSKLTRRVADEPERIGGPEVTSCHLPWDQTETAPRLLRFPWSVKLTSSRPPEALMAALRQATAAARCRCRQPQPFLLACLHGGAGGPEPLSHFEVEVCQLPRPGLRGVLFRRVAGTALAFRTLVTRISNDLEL

Q: How did the residual activity turn out when `O=C(Nc1ccc(Cl)cc1)c1ccccc1NCc1ccncc1` was run?
A: 107%

Q: With `CC(C)n1cnc2c(Nc3cccc(Cl)c3)nc(NCCO)nc21` as the molecule, how does the residual activity read?
A: 88.1%

Q: Which residual activity does the source give for `COc1cc2nccc(Oc3ccc(NC(=S)NC(=O)c4ccccc4C)cc3)c2cc1OC` here?
A: 73.3%

Q: For `O=c1cc(-c2cccc3c2Sc2ccccc2S3)oc(N2CCOCC2)c1`, which residual activity is on record?
A: 100%

molecular target: MATK (human) (UniProt P42679); assay: as above; conditions: compound 0.5 µM; ATP 10 µM

Q: For `O=C(Nc1ccc(Cl)cc1)c1ccccc1NCc1ccncc1`, which residual activity is on record?
A: 99.3%

Q: With `CC(C)n1cnc2c(Nc3cccc(Cl)c3)nc(NCCO)nc21` as the molecule, how does the residual activity read?
A: 93.3%

Q: How did the residual activity turn out when `COc1cc2nccc(Oc3ccc(NC(=S)NC(=O)c4ccccc4C)cc3)c2cc1OC` was run?
A: 93%

Q: Which residual activity does the source give for `O=c1cc(-c2cccc3c2Sc2ccccc2S3)oc(N2CCOCC2)c1` here?
A: 102%
